Paper PMC7180948, “New Insights into 4-Anilinoquinazolines as Inhibitors of Cardiac Troponin I–Interacting Kinase (TNNi3K)” (Molecules, 2020)

Tests used:
Experiment in all cases: biochemical
Parameters in all cases: KINOMEscan competition binding panel (Eurofins DiscoverX), single concentration, percent inhibition
Settings in all cases: read-out: 15 at 1 µM % inhibition
PIK3CB = PIK3CB (Homo sapiens, UniProt P42338)
Summary of the method: (§1)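 A single 1 µM concentration of each compound is screened across upwards of 400 human kinases using the KINOMEscan format.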

MYO3A = MYO3A (Homo sapiens, UniProt Q8NEV4)
Summary of the method: as §1

PCTK2 = target: T1, PCTK2 (Homo sapiens, UniProt Q00537)
T1 construct: gene CDK17
Summary of the method: as §1

TBK1 = TBK1 (Homo sapiens, UniProt Q9UHD2)
Summary of the method: as §1

LRRK2 = LRRK2 (Homo sapiens, UniProt Q5S007)
Summary of the method: as §1

VRK2 = VRK2 (Homo sapiens, UniProt Q86Y07)
Summary of the method: as §1

STK39 = STK39 (Homo sapiens, UniProt Q9UEW8)
Summary of the method: as §1

HPK1 = target: T2, HPK1 (Homo sapiens, UniProt Q92918)
T2 construct: gene MAP4K1
Summary of the method: as §1

HCK = HCK (Homo sapiens, UniProt P08631)
Summary of the method: as §1

MAP4K4 = MAP4K4 (Homo sapiens, UniProt O95819)
Summary of the method: as §1

[1] = target: T3, RPS6KA5(Kin.Dom.1-N-terminal) (Homo sapiens, UniProt O75582)
T3 construct: Kin.Dom.1-N-terminal
Summary of the method: as §1

PIK3CA(E542K) = PIK3CA(E542K) (Homo sapiens, UniProt P42336, E542K)
Summary of the method: as §1

CSK = CSK (Homo sapiens, UniProt P41240)
Summary of the method: as §1

IRAK3 = IRAK3 (Homo sapiens, UniProt Q9Y616)
Summary of the method: as §1

DYRK1A = DYRK1A (Homo sapiens, UniProt Q13627)
Summary of the method: as §1

WEE2 = WEE2 (Homo sapiens, UniProt P0C1S8)
Summary of the method: as §1

ERBB3 = ERBB3 (Homo sapiens, UniProt P21860)
Summary of the method: as §1

LTK = LTK (Homo sapiens, UniProt P29376)
Summary of the method: as §1

EGFR(L861Q) = EGFR(L861Q) (Homo sapiens, UniProt P00533, L861Q)
Summary of the method: as §1

PIK3C2B = PIK3C2B (Homo sapiens, UniProt O00750)
Summary of the method: as §1

CAMK2B = CAMK2B (Homo sapiens, UniProt Q13554)
Summary of the method: as §1

AXL = AXL (Homo sapiens, UniProt P30530)
Summary of the method: as §1

OSR1 = target: T4, OSR1 (Homo sapiens, UniProt O95747)
T4 construct: gene OXSR1
Summary of the method: as §1

PIK3CG = PIK3CG (Homo sapiens, UniProt P48736)
Summary of the method: as §1

Chain of PIK3CG (P48736 whole entry): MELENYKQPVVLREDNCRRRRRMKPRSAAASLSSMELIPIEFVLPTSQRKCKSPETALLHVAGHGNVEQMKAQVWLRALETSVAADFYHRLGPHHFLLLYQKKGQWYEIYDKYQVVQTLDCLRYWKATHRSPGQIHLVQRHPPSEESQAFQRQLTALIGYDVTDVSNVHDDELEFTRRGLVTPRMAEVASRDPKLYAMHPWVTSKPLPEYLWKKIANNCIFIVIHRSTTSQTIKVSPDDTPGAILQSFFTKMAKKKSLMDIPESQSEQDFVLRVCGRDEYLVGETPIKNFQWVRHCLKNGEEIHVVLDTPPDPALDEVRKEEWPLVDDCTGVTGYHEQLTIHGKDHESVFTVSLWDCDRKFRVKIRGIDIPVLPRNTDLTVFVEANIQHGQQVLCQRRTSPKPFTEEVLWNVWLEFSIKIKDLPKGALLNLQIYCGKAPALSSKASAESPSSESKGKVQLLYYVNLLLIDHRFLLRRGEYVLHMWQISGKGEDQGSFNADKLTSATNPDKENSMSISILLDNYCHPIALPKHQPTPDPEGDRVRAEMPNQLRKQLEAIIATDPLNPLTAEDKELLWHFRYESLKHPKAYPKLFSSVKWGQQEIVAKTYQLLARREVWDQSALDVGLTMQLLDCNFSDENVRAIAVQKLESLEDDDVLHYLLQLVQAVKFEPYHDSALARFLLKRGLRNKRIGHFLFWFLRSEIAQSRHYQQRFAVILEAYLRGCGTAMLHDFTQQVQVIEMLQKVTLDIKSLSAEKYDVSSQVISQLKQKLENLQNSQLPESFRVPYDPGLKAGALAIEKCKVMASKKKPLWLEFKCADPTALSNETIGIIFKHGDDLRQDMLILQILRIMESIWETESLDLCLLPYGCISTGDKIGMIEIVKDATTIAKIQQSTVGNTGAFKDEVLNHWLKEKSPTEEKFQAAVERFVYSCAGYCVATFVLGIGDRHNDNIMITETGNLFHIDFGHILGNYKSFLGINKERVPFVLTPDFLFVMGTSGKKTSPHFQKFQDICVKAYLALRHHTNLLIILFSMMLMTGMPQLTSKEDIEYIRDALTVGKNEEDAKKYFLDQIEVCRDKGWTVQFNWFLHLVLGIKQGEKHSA
Chain of PIK3CA(E542K) (P42336 whole entry E542K): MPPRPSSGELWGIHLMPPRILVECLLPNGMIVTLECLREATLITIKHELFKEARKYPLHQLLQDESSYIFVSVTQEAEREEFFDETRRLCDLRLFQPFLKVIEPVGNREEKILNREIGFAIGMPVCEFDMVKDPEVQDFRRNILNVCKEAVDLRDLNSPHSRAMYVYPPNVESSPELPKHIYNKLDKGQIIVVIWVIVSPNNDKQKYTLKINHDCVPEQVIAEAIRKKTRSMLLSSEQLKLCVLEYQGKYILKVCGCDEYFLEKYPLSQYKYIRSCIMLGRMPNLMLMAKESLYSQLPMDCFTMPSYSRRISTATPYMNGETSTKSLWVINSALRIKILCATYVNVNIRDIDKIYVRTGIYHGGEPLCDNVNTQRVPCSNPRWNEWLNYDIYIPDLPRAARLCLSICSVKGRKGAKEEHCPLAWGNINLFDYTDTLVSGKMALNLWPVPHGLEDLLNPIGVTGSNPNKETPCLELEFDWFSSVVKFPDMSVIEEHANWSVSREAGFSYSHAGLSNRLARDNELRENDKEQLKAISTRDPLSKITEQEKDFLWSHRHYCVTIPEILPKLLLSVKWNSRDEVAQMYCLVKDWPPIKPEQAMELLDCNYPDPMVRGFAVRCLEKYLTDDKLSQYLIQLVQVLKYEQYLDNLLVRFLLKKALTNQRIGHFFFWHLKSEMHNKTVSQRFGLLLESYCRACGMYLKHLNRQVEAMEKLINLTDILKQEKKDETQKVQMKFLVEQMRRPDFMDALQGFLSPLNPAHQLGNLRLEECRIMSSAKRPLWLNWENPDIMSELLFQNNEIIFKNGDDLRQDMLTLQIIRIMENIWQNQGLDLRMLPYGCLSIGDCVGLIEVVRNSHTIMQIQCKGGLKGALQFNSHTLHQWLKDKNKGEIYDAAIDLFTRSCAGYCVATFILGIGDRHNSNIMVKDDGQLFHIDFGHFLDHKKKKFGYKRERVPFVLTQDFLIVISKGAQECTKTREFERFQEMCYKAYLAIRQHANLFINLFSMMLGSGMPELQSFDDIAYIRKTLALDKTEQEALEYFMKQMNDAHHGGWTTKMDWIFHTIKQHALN
Chain of MYO3A (Q8NEV4 whole entry): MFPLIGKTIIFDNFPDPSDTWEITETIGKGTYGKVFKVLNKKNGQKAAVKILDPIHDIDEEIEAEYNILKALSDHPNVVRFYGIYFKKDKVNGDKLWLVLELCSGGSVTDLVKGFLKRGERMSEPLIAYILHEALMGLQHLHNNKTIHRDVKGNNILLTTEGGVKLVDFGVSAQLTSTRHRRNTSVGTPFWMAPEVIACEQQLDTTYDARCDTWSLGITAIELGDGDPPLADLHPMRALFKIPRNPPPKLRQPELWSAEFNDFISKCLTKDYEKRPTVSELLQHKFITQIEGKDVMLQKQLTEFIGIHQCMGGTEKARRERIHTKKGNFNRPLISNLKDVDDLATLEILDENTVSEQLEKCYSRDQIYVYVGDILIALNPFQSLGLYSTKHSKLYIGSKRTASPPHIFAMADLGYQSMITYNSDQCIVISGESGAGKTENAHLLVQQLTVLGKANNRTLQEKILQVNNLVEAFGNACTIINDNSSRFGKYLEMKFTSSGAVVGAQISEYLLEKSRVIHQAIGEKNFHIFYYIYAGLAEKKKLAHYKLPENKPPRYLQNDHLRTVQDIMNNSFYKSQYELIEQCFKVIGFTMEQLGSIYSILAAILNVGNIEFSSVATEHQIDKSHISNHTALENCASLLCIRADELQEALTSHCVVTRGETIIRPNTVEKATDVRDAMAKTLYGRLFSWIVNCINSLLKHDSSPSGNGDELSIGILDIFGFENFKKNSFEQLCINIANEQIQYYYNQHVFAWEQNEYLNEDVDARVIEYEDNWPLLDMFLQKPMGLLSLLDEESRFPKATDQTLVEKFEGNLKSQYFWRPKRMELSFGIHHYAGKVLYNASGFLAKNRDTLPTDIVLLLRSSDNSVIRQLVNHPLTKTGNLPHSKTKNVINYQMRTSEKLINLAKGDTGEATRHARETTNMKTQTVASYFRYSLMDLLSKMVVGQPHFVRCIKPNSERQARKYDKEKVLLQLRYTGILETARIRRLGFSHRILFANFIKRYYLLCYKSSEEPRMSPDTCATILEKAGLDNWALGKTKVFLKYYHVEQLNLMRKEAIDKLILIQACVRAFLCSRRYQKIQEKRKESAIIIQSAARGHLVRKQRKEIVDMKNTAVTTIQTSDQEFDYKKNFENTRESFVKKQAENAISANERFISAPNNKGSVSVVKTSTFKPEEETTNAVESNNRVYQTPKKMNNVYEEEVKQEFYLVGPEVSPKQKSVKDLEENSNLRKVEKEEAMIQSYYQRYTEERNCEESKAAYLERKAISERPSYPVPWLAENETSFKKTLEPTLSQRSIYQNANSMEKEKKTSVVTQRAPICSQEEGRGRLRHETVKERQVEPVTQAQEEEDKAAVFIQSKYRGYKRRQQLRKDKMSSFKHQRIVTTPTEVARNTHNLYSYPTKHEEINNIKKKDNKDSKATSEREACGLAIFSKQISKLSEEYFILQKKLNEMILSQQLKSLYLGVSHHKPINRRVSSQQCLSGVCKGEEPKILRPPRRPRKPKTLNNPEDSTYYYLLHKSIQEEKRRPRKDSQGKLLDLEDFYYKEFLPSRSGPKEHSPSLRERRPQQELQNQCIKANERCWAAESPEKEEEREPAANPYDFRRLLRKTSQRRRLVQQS
T1 sequence (Q00537 whole entry): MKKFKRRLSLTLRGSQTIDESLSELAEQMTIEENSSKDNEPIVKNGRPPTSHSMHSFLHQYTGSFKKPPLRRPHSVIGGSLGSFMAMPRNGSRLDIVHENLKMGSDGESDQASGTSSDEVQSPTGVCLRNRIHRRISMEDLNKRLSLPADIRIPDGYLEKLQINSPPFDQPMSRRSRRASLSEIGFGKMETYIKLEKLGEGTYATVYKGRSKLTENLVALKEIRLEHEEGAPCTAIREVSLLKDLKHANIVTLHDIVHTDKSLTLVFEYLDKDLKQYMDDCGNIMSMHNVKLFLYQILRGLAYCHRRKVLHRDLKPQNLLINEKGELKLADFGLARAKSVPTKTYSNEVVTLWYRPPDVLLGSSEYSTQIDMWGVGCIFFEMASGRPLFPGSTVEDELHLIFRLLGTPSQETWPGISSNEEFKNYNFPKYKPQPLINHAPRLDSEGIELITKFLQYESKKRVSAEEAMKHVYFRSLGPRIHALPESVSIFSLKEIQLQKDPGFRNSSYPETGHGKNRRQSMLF
T3 sequence (O75582 whole entry): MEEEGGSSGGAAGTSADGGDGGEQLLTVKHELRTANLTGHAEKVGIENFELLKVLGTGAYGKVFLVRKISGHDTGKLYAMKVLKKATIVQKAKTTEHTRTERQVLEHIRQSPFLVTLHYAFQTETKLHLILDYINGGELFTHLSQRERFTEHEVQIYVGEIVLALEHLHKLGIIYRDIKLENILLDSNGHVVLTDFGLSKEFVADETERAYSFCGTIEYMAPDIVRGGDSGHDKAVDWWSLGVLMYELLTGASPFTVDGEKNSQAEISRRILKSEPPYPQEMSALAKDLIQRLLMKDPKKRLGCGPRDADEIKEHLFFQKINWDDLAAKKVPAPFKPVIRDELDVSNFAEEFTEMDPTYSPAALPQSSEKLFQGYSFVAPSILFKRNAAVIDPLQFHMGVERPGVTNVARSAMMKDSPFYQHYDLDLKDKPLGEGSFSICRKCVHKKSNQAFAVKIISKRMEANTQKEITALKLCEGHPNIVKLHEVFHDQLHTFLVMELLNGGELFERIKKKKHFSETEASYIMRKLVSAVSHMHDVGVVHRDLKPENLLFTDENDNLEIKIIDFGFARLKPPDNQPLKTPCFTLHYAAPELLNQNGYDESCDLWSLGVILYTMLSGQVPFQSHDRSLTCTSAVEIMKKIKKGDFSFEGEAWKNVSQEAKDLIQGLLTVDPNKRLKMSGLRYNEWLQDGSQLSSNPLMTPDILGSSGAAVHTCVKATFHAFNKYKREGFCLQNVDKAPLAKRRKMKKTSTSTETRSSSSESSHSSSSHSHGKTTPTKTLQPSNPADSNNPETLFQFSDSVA

- inhibition at 1 µM (PIK3CB): 25%
- inhibition at 1 µM (MYO3A): 0%
- inhibition at 1 µM (PCTK2): 0%
- inhibition at 1 µM (TBK1): 0%
- inhibition at 1 µM (LRRK2): 0%
- inhibition at 1 µM (VRK2): 12%
- inhibition at 1 µM (STK39): 2%
- inhibition at 1 µM (HPK1): 0%
- inhibition at 1 µM (HCK): 4%
- inhibition at 1 µM (MAP4K4): 9%
- inhibition at 1 µM [1]: 0%
- inhibition at 1 µM (PIK3CA(E542K)): 22%
- inhibition at 1 µM (CSK): 2%
- inhibition at 1 µM (IRAK3): 3%
- inhibition at 1 µM (DYRK1A): 15%
- inhibition at 1 µM (WEE2): 0%
- inhibition at 1 µM (ERBB3): 16%
- inhibition at 1 µM (LTK): 12%
- inhibition at 1 µM (EGFR(L861Q)): 0%
- inhibition at 1 µM (PIK3C2B): 71%
- inhibition at 1 µM (CAMK2B): 0%
- inhibition at 1 µM (AXL): 9%
- inhibition at 1 µM (OSR1): 42%
- inhibition at 1 µM (PIK3CG): 0%
SMILES: CNS(=O)(=O)c1ccc(N(C)C)c(Nc2nc(C)nc3cc(OC)c(OC)cc23)c1 [compound 15, 3-((6,7-dimethoxy-2-methylquinazolin-4-yl)amino)-4-(dimethylamino)-N-methylbenzenesulfonamide]
